pIC50: −log10 of the molar value. Where two headings read alike, the source gives them in different places.
Biological target: T1, CIB1 and αIIb interaction (CIB1-GST : F-αIIb peptide) (Homo sapiens, UniProt Q99828)
T1 construct: made in house; host or cells: BL-21 plus RIL cells (E. coli)
T1 sequence (Q99828 1-191): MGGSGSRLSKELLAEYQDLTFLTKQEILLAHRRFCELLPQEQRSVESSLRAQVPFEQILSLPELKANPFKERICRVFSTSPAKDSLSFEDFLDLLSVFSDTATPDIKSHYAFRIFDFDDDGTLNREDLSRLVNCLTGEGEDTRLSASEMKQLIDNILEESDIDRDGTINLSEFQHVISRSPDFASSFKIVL
Test: FP assay, 1536-well qHTS format (primary and confirmatory screen)
Format: binding
Conditions: for Curve Class: negative sign = inhibitory curve; for pIC50: read-out: IC50

[1] = qHTS primary screen hits, Table S2, negative = inhibition
[2] = qHTS primary screen hits, Table S2
[3] = qHTS primary screen hits, Table S2, several classes where COUNT > 1
[4] = qHTS primary screen of LOPAC/NPACT libraries, negative = inhibition
[5] = qHTS primary screen of LOPAC/NPACT libraries

SMILES | Efficacy (%) [1] [%] | Curve Class [3] | pIC50 [2] | also measured
S=P(N1CC1)(N1CC1)N1CC1 [NCGC00095042-06] | -44 |  |  | IC50 (IC50 [μM]): 126 µM; Curve Class [2]: -2.2
C=C1c2cccc(O)c2C(O)=C2C(=O)[C@]3(O)C(O)=C(C(N)=O)C(=O)[C@@H](N(C)C)[C@@H]3[C@@H](O)[C@H]12.Cl [NCGC00179358-04] | -53 | -2.4 | 4.25 | 
O=c1[nH]c2cc([N+](=O)[O-])c([N+](=O)[O-])cc2[nH]c1=O [NCGC00015319-06] | -48 |  | 4.50 | Curve Class [2]: -2.2
Nc1nc(N)c2nc(CNc3ccc(C(=O)NC(CCC(=O)O)C(=O)O)cc3)cnc2n1 (stereo not shown) [NCGC00015038-09] | -49 |  | 4.40 | Curve Class [2]: -2.2
O=C(O)C(F)(F)F.O=C1CC(c2ccc(F)cc2Cl)c2sc(N3CCOCC3)nc2N1 (stereo not shown) [NCGC00488260-02] | -41 | -2.4 | 4.30 | 
O=C(O)C(F)(F)F.c1nc(NCCc2c[nH]cn2)c2ccc(-c3ccc4c(c3)OCO4)cc2n1 [NCGC00185971-01] | -28 | -2.4 | 4.10 | 
COc1cc(NS(C)(=O)=O)ccc1Nc1c2ccccc2nc2ccccc12.Cl [NCGC00015113-03] |  |  |  | Efficacy (%) [4]: -25%; Curve Class [5]: -2.2; pIC50 [5]: 4.25
C[C@]12CC[C@@H]3c4ccc(OC(=O)N(CCCl)CCCl)cc4CC[C@H]3[C@@H]1CC[C@@H]2O [NCGC00164581-02] | -41 | -2.2 | 4.30 | 
CC1=C(C(=O)OC2CCCCC2)C(c2ccc([N+](=O)[O-])cc2)C2=C(CC(C)(C)CC2=O)N1 (stereo not shown) [NCGC00370923-11] |  |  |  | Efficacy (%) [4]: -104%; Curve Class [5]: -2.1; pIC50 [5]: 4.75
Nc1ccc2nc3c(=O)n(CCc4ccccc4)c(=O)[nH]c3nc2c1.O=C(O)C(F)(F)F [NCGC00356558-01] | -62 | -1.2 | 5.30 | 
CCCc1c(O)c(O)c(C(=O)O)c2cc(Cc3ccccc3)c(C)cc12 [NCGC00249596-02] | -48 | -2.2 | 4.35 | 
Nc1c(C(=O)Nc2ccc(F)cc2)sc2nc(-c3cccs3)ccc12.O=C(O)C(F)(F)F [NCGC00371815-01] | -31 | -2.4 | 4.10 | 
CCCCCN(CCCCC)C(=O)C(CCC(=O)O)NC(=O)c1ccc(Cl)c(Cl)c1 (stereo not shown) [NCGC00162232-03] |  |  |  | Efficacy (%) [4]: -19%; Curve Class [5]: -2.2; pIC50 [5]: 4.35
CC(C)NCC(O)c1cc(O)cc(O)c1.CC(C)NCC(O)c1cc(O)cc(O)c1.O=S(=O)(O)O (stereo not shown) [NCGC00015655-09] | -51 | -2.4 | 4.25 | 
CCCCn1nc(-c2ccccc2)c2nc3ccccc3nc21.O=C(O)C(F)(F)F [NCGC00351644-02] | -127 | -1.1 | 4.60 | 
CCOC(=O)Nc1ccc(NCc2ccc(F)cc2)nc1N.O=C(O)/C=C\C(=O)O [NCGC00015451-04] |  |  |  | Efficacy (%) [4]: -53%; pIC50 [5]: 4.40
CC(=O)Nc1sc2c(c1-c1nc3ccccc3s1)CCN(C1COC1)C2.O=C(O)C(F)(F)F [NCGC00241066-01] | -83 | -1.2 | 4.85 | 
O=C(O)C(F)(F)F.O=C(O)c1csc(-n2nc(-c3ccc(F)c(Cc4ccccc4)c3)cc2O)n1 [NCGC00356005-01] | -47 | -2.2 | 4.10 | 
Cc1sc2c(c1C)C(c1ccc(Cl)cc1)=N[C@@H](CC(=O)Nc1ccc(OCCOCCOCCOCCNc3cccc4c3C(=O)N(C3CCC(=O)NC3=O)C4=O)cc1)c1nnc(C)n1-2 (stereo partly shown) [NCGC00483927-01] |  |  |  | Efficacy (%) [4]: -26%; Curve Class [5]: -2.4; pIC50 [5]: 4.65
COCCCOc1ccnc(C[S+]([O-])c2nc3ccccc3[n-]2)c1C.[Na+] (stereo not shown) [NCGC00159518-05] | -54 |  | 4.37 | 
NS(=O)(=O)c1ccc(Cc2cn(-c3nc(C(=O)O)cs3)c3ncccc23)cc1 [NCGC00356703-01] | -41 | -2.2 | 4.35 | 
CCOc1cc(C(C)(C)C)ccc1C1=N[C@@](C)(c2ccc(Cl)cc2)[C@@](C)(c2ccc(Cl)cc2)N1C(=O)N1CCN(CC(=O)N2CCOCC2)CC1 [NCGC00378588-02] | -29 | -2.4 | 4.31 | 
CCOC(=O)C1=C(C)NC(C)=C(C(=O)OC)C1c1cccc([N+](=O)[O-])c1 (stereo not shown) [NCGC00015713-10] |  |  |  | Efficacy (%) [4]: -23%; Curve Class [5]: -2.4; pIC50 [5]: 4.20
N#C/C(=C\c1ccc(O)c(O)c1)C(=O)NCCCNC(=O)/C(C#N)=C/c1ccc(O)c(O)c1 [NCGC00016027-04] |  |  |  | Efficacy (%) [4]: -24%; Curve Class [5]: -1.2

SMILES | Efficacy (%) [1] [%] | Curve Class [3] | pIC50 [2] | also measured
O=C(O)C(F)(F)F.O=c1[nH]c2ccccc2n1C1CCN(CCCC(c2ccc(F)cc2)c2ccc(F)cc2)CC1 [NCGC00015802-18] | -216 |  | 4.05 | Curve Class [2]: -3
O=C(Nc1nc(-c2ccccc2)cs1)c1ccncc1NS(=O)(=O)c1ccccc1Cl.O=C(O)C(F)(F)F [NCGC00344943-02] | -50 |  | 4.19 | 
CCOC(=O)OC(C)OC(=O)c1csc(-n2nc(-c3ccc(F)c(F)c3)cc2O)n1.O=C(O)C(F)(F)F (stereo not shown) [NCGC00356024-01] | -35 | -2.4 | 4.10 | 
Cc1cccc(C)c1-n1c(=O)c2cnc(Nc3ccc(N4CCN(C)CC4)cc3)nc2n2c3ccccc3nc12 [NCGC00378811-02] |  |  |  | Efficacy (%) [4]: -28%; Curve Class [5]: -2.4; pIC50 [5]: 4.25
O=C(O)C(F)(F)F.O=C(c1ccc2c(c1)ncn2-c1ccc(C(F)(F)F)cc1)N1CCCCC1 [NCGC00262230-01] | -43 |  | 4.35 | Curve Class [2]: -2.2
Fc1cc(Nc2nc(-c3ccncc3)nc3ccccc23)ccc1N1CCNCC1.O=C(O)C(F)(F)F [NCGC00345204-01] | -36 | -2.4 | 4.05 | 
CN(C)c1ccc(C(=C2C=CC(=[N+](C)C)C=C2)c2ccccc2)cc1.CN(C)c1ccc(C(=C2C=CC(=[N+](C)C)C=C2)c2ccccc2)cc1.O=C(O)C(=O)O.O=C([O-])C(=O)O.O=C([O-])C(=O)O [NCGC00013058-02] | -53 | -3 | 4.00 | 
O=C(N[C@@H](Cc1ccccc1)C(=O)CCl)OCc1ccccc1 [NCGC00093742-04] |  |  |  | Efficacy (%) [4]: -19%; Curve Class [5]: -1.2; pIC50 [5]: 5.00
O=C1Nc2ccc3ncsc3c2/C1=C/c1c[nH]cn1 [NCGC00387501-01] | -27 |  | 5.15 | Curve Class (qHTS primary screen hits, Table S2, NPACT library): -1.4
Cl.NS(=O)(=O)c1cccc(Cc2c(-c3ccc(F)c(F)c3)nn(-c3nc(C(=O)O)cs3)c2O)c1 [NCGC00356269-01] | -17 | -2.4 | 4.30 | 
Cc1ccc(O)c2ncccc12 [NCGC00164506-02] | -50 |  | 4.35 | Curve Class [2]: -2.2
O=[N+]([O-])/C=C/c1ccc2c(c1)OCO2 [NCGC00186015-01] |  |  |  | Efficacy (%) [4]: -24%; Curve Class [5]: -2.2; pIC50 [5]: 4.25
CC(C)=CCOc1ccc(/C=C/C(=O)c2ccc(OCC=C(C)C)cc2OCC(=O)O)cc1 [NCGC00159481-03] | -94 |  | 4.00 | Curve Class [2]: -3
CCCCCCCCCCC/C=C\C(C)(C)/C=C\CCCC(=O)O [NCGC00015371-07] |  |  |  | Efficacy (%) [4]: -30%; Curve Class [5]: -2.4; pIC50 [5]: 4.25
c1ccc(C2Nc3cccc4cccc(c34)N2)cc1 [NCGC00182927-03] |  |  | 4.30 | Efficacy (%): -29%; Curve Class [2]: -2.4
C=C1C(=O)O[C@@H]2[C@H]3O[C@]3(C)CC/C=C(/C)CC[C@@H]12 [NCGC00094250-05] |  |  |  | Efficacy (%) [4]: -19%; Curve Class [5]: -1.2; pIC50 [5]: 5.00
O=C(Nc1ccc(Cl)c(Cl)c1)Nc1nnc(N2CCNCC2)s1.O=C(O)C(F)(F)F [NCGC00238616-01] | -35 | -2.4 | 4.10 | 
Cc1ccc(S(=O)(=O)Nc2cnccc2C(=O)Nc2cccc3ccccc23)cc1.O=C(O)C(F)(F)F [NCGC00343900-01] | -32 |  | 4.30 | Curve Class [2]: -2.4
Cc1ccc(N[S+](=O)([O-])c2cc3c(cc2N[C@@H](C)CO)NC(=O)CC3)cc1N[C@@H](C)CO [NCGC00189369-01] | -29 | -2.4 | 4.15 | 
CCc1oc2ccccc2c1C(=O)c1cc(Br)c(O)c(Br)c1 [NCGC00013895-18] |  |  |  | Efficacy (%) (qHTS FP screen hits, Table S2, negative = inhibition): -51%; Curve Class (qHTS FP screen hits, Table S2, one class per curve where COUNT > 1): -2.2; pIC50 (qHTS FP screen hits, Table S2): 4.46
Cc1cc(Cn2cnc3c2C[C@@H](C(=O)O)N(C(=O)C(c2ccccc2)c2ccccc2)C3)ccc1N [NCGC00162092-02] |  |  |  | Efficacy (%) [4]: -10%; Curve Class [5]: -1.4; pIC50 [5]: 5.00
CC(C)c1cc(F)cc2c1C[C@](CCN(C)CCCc1nc3ccccc3[nH]1)(OC(=O)C1CC1)CC2 [NCGC00162214-02] |  |  |  | Efficacy (%) [4]: -30%; Curve Class [5]: -2.2; pIC50 [5]: 4.25
Nc1ccccc1N [NCGC00090885-03] | -77 |  | 3.95 | 
